Reference: patent US11440932B2, “Surfactant compounds-clips for extraction and stabilization in solution of membrane proteins” (CENTRE NATIONAL DE LA RECHERCHE SCIENTIFIQUE, priority 2017, dated 2022)
Entries after “also recorded” stand apart in the source; their conditions may differ. Residues, ends and D or L forms follow the SMILES beside them. *: point of attachment. Palmitoyl = CCCCCCCCCCCCCCCC(=O)*

What was measured:
BmrA [1] = target: T1, BmrA (Bacillus subtilis, UniProt O06967); test: Extraction of BmrA from membranes (SDS-PAGE of supernatant); parameters: species or system bacterial; overexpressed in E. coli C41DE3; details: detergent 10 g/l unless indicated otherwise; 2 h at 4° C.
T1 construct: His tag; made in house; host or cells: E. coli C41(DE3)
Description: (§1) FIG. 6 depicts the extraction of the membrane proteins BmrA (panels A and C) and AcrB (panels B and D) using commercial detergents and the molecules of the invention (panels A and B, from left to right): SDS, DDM, FC12, TX100, compounds of the invention 1.4, 1.5, 2.3a, 2.3b, 2.3c, 2.3d, 2.3e, 2.3f, 2.3g, 2.3h, 2.3i, 3.7a, 3.7b; panel C: compounds of the invention 3.7c 0.8%, 3.7d 0.16%, 3.7e 0.8%, 3.7f 0.3%, 3.7g 0.4%, 3.7h 0.2%, 3.7i 0.07%, 3.7j 0.09%, 3.7k, 3.7l, 0.25%, 3.9a, 4.5a, 4.5b, 4.5c, 4.5d 0.34%, 4.6a, 4.6b, 4.6c, 4.6d, 5.3a, 5.3b, 5.3c 0.3%, 5.3d 0.3%; panel D: 3.7c, 3.7d, 3.7e, 3.7f, 3.7h, 3.7i 0.1%, 3.7j, 3.7k, 3.7l, 3.9a, 4.5a, 4.5b, 4.5c, 4.5d, 4.6a, 4.6b, 4.6c, 4.6d. The detergents are added at 10 g/l (1%), unless indicated otherwise. The equivalent of 20 μg of proteins of the extracted fraction after centrifugation at 100 000×g for 30 min is deposited on 10% SDS-PAGE, stained with Coomassie blue after migration. BmrA migrates in its monomeric form to the level of the 55 kDa band; AcrB migrates in its monomeric form to the level of the 100 kDa band. SDS=sodium dodecyl sulfate; DDM=β-D-dodecyl maltoside; FC12=foscholine-12; TX100=triton X-100.
(§2) The extraction capacity of the detergents of the series is tested on membranes in which BmrA or AcrB are strongly expressed. The extraction with the clips (molecules of the invention) is compared to that obtained with commercial detergents, used as reference.
(§3) Procedure. BmrA represents 25% of the proteins present in the overexpression system used (E. coli, C41DE3). These membranes are prepared as described previously (Matar-Merheb, R. et al. ([11])). The membranes containing AcrB (approximately 20% of the membrane proteins, same expression system as BmrA) were prepared as described previously (Seeger, M. A. et al. ([21])). The detergents are used at 10 g/l unless indicated otherwise, and the proteins diluted at 2 g/l in a 20 mM Tris-HCl buffer, pH 8.0, 100 mM NaCl, 15% glycerol, with protease inhibitors (Roche) added thereto at an amount of one tablet/100 ml. The mixture (T) is incubated for 2 h at 4° C. then centrifuged for 1 h at 4° C. at 100 000×g in order to separate the extracted fraction (supernatant, S) from that which is not extracted (pellet). The supernatants are deposited on 10% SDS-PAGE and stained with Coomassie blue after migration. The foscholine 12, DDM and LMNG originate from Anatrace, the SDS and Triton X100 originate from Sigma-Aldrich.

[2] = Critical micelle concentration (CMC) by DPH fluorescence; type: physicochemical; details: for CMC: 50 mM tris-HCl, pH 8.0
Description: FIG. 4 represents the fluorescence (%) of DPH (1,6-diphenyl-1,3,5-hexatriene) in the presence of increasing concentrations (0.0001 mM, 0.001 mM, 0.01 mM, 0.1 mM, 1 mM and 10 mM) of clips (compounds of the invention), exemplified with the compounds #3.7e (C13, points represented by squares) and 3.7f (C18, points represented by circles). The experiment is carried out in triplicates. In accordance with Chattopadhyay, A. & London, E ([22]), the CMC corresponds to the concentration at which the breakage in the slope is observed, here at 20 μM for 3.7f and 2 mM for 3.7e (black symbols).
Procedure. The molecules of the invention were prepared in a range of concentrations extending from 0.1 μM to 10 mM in 50 mM tris-HCl, pH 8.0 and neutralized at this pH. To 80 μl of each solution (triplicate), the same volume of 10 μM of 1,6-diphenyl-1,3,5-hexatriene (DPH, Sigma, D208000) is added, prepared at 100 μM in tetrahydrofuran then diluted 10-fold in H2O. The increase in the fluorescence of the DPH occurs when the latter find micelles of clips into which it can insert itself (Chattopadhyay, A. & London, E. Fluorimetric determination of critical micelle concentration avoiding interference from detergent charge. Anal Biochem 139, 408-412 (1984) ([22])). The fluorescence is read with a Xenius SAFAS fluorimeter by exciting at 358 nm and recording the fluorescence emission at 430 nm, with slits of 9 to 10 nm for the excitation and the emission and a gain of 100 to 150, depending on the cases.
Results. The CMC of the detergents is the concentration starting from which they associate with one another to form micelles, in which, in aqueous solution, the hydrophobic portions are grouped together at the center and the hydrophilic regions are exposed to the solvent. […] A typical result obtained with a compound 3.7 provided with a C13 (3.7e) or C18 ([…]) aliphatic chain is illustrated in FIG. 4.

AcrB = target: T2, AcrB (Escherichia coli, UniProt P31224); test: Extraction of AcrB from membranes (SDS-PAGE of supernatant); parameters: species or system bacterial; same expression system (E. coli C41DE3); details: for extraction of AcrB: detergent 10 g/l unless indicated otherwise, 2 h at 4° C.
T2 construct: made in house; host or cells: E. coli C41(DE3)
Description: as §1, §2, §3

[3] = Diameter of micelles by dynamic light scattering (DLS); type: physicochemical; details: estimated micelle diameter by DLS; 30 mM tris-HCl, pH 8.0
Description: FIG. 5 depicts the dynamic light scattering (DLS) of clips, in intensity (%, column A on the left) and in number (%, column B on the right), as a function of the […] (nm). The estimated diameters are indicated on each panel (column A). Columns A and B, from top to bottom: compound 3.7c (10 mM, 5×CMC), compound 3.7d (10 mM, 5×CMC), compound 3.7e (2 mM, […]), compound 3.7f (10 mM, 500×CMC), compound 3.7h (1 mM, 100×CMC), compound 3.7j (2 mM, 100×CMC), compound 3.9a (1 mM, 50×CMC).
Another physicochemical parameter of the micelles of detergents is their diameter, assuming that they are spherical. This dimension is obtained by the light scattering (DLS) technique.
Procedure. The molecules of the invention tested were prepared in a range of concentrations extending from 0.1 to 1000×CMC in 30 mM tris-HCl, pH 8.0 and neutralized at this pH. The solutions are filtered on 0.22 μm. The measurement is carried out on 100 μl, in triplicate on a Zetasizer Nano-S from Malvern Instruments.

BmrA [4] = target: T1, BmrA; test: ATPase activity of BmrA after addition of detergents; type: biochemical, bacterial; produced in E. coli C41 DE3
Description: FIG. 7 depicts the effect of the detergents of the invention on the functionality of BmrA (ATPase activity, %). The membrane fraction enriched in BmrA (˜25%) diluted to 2 g/l has the compounds added to it at the concentrations (mM) indicated (panel A, from top to bottom: 3.7e 10.7 mM, 3.7e 8.6 mM, 3.7e 6.4 mM, 3.7e 4.3 mM, 3.7e 2.2 mM, 3.7e 1.1 mM, 3.7d 4 mM, 3.7d 3 mM, 3.7d 2 mM, 3.7d 1 mM, 3.7d 0.8 mM, 3.7d 0.6 mM, 3.7d 0.05 mM, 3.7d 0.03 mM, 3.7d 0.02 mM, 3.7c 13 mM, 3.7c 10.4 mM, 3.7c 10 mM, 3.7b 1.5 mM, 3.7b 0.7 mM, 3.7b 0.5 mM, 2.3gNa2 20.5 mM, 2.3gK2 19.3 mM, 2.3f 21.1 mM, 2.3e 22 mM, 2.3d 23.2 mM, 2.3a 3.2 mM, 1.5a 22 mM, DDM 20 mM, DDM 2 mM, DDM 10 mM, DOM 2 mM, DDM 1 mM, LMNG 10 mM, LMNG 1 mM, LMNG 0.1 mM, LMNG 0.01 mM, FA3 27 mM, FA3 9 mM, FA3 2 mM, FA3 1 mM, TX100 16 mM; panel B from top to bottom: compounds of the invention 5.3d 3.2 mM, 5.3c 3.3 mM, 5.3b 11.7 mM, 5.3b 2.9 mM, 5.3a 3 mM, 4.6c 14.6 mM, 4.6b 15.2 mM, 4.5c 18.6 mM, 4.5b 19.6 mM, 3.9a 8 mM, 3.9a 0.51 mM, 3.9a 0.31 mM, 3.9a 0.11 mM, 3.7l 12.01 mM, 3.7l 6.01 mM, 3.7l 3 mM, 3.7l 1 mM, 3.7k 10 mM, 3.7k 3 mM, 3.7j 3 mM, 3.7j 2 mM, 3.7j 1 mM, 3.7j 0.6 mM, 3.7j 0.03 mM, 3.7j 0.02 mM, 3.7j 1 mM, 3.7i 0.3 mM, 3.7h 3 mM, 3.7h 2 mM, 3.7h 1 mM, 3.7h 0.6 mM, 3.7h 0.58 mM, 3.7h 0.5 mM, 3.7h 0.35 mM, 3.7h 0.1 mM, 3.7h 0.5 mM, 3.7h 0.35 mM, 3.7h 0.1 mM, 3.7h 0.05 mM, 3.7h 0.03 mM, 3.7h 0.02 mM, 3.7g 12.5 mM, 3.7g 9 mM, 3.7g 7.5 mM, 3.7g 5 mM, 3.7g 3 mM, 3.7g 1 mM, 3.7f 3.2 mM, 3.7f 2 mM, 3.7f 1 mM, 3.7f 0.061 mM, 3.7f 0.031 mM, 3.7f 0.015 mM). After incubation for 2 h at 4° C., the ATPase activity is measured. The solutions are subsequently centrifuged for 1 h at 4° C., 100 000×g, and the supernatants deposited on 10% SDS-PAGE (cf. FIG. 8). The gray and black histograms correspond to the concentrations at which BmrA is partially (gray) or entirely (black) extracted, according to these SDS-PAGE. The ATPase activity is in % relative to that of the protein without compound, 0.7 μmol ATP hydrolyzed/min/mg of proteins.
The molecules of the invention which extract BmrA in the previous example were tested at different sub-solubilizing and solubilizing concentrations, to evaluate their impact on the native and functional state of the protein. The latter is monitored by the hydrolysis of ATP which is carried out by the protein during the transport cycle, coupled with translocation of the solute. As reported previously (Matar-Merheb, R. et al. ([11])), the ATPase activity of BmrA is a highly sensitive marker of the state of the protein, the latter being particularly sensitive to the detergents used during the extraction step, where said detergents replace the lipids on contact with the membrane protein.
Procedure. BmrA produced and enriched in the plasma membrane of E. coli C41 DE3 is prepared as described previously (Matar-Merheb, R. et al. ([11])). The membranes are diluted at 2 g/l in a 20 mM Tris-HCl buffer, pH 8.0, 100 mM NaCl, 15% glycerol, with protease inhibitors (Roche) added thereto at an amount of one tablet/100 ml. The mixture (T) is incubated for 2 h at 4° C. and the ATPase activity is measured using the coupled-enzyme system, separating off the vanadate-insensitive activity from the total activity, Centeno, F. et al. Expression of the sarcoplasmic reticulum Ca^2+-ATPase in yeast. FEBS Lett 354, 117-122 (1994) ([25])). The solutions are subsequently centrifuged for 1 h at 4° C. at 100 000×g in order to separate the extracted fraction (supernatant, S) from that which is not extracted (pellet). The supernatants are deposited on 10% SDS-PAGE and stained with Coomassie blue after migration (FIG. 8). DDM, LMNG (Chae, P. S. et al. ([6])), TritonX100 and FA3 (Lee, S. C. et al. (2013) ([9])) are tested as reference detergents. The DDM and LMNG originate from Anatrace, the Triton X100 originates from Sigma-Aldrich and the FA3 from Avanti-Polars.

T2 sequence (P31224 whole entry): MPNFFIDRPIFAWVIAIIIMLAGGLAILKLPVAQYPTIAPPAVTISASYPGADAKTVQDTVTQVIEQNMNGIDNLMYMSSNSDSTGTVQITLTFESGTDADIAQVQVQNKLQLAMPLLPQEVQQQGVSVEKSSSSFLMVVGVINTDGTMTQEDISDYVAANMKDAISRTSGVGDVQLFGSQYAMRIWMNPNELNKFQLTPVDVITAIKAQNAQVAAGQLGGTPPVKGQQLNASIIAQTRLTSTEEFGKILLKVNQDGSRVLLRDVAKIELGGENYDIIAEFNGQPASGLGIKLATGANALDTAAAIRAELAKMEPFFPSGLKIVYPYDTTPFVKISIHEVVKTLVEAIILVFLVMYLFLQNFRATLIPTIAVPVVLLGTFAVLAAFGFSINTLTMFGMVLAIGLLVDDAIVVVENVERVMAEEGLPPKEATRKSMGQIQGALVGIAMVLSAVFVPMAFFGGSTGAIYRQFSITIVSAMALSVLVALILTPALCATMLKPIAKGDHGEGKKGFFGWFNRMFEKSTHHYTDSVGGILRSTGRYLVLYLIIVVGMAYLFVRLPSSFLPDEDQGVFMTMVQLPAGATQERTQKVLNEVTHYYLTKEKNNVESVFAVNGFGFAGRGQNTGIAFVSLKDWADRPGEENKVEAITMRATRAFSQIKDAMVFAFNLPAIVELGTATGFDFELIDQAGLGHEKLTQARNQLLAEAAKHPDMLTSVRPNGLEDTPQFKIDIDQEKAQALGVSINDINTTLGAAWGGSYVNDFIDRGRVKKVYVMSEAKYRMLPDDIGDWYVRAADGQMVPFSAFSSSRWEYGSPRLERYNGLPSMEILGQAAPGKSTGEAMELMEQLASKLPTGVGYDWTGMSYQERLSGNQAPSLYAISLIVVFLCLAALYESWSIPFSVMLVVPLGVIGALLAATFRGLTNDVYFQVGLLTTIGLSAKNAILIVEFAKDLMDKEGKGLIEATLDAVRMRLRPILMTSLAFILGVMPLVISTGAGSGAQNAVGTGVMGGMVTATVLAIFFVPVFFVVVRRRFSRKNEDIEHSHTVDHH
T1 sequence (O06967 whole entry): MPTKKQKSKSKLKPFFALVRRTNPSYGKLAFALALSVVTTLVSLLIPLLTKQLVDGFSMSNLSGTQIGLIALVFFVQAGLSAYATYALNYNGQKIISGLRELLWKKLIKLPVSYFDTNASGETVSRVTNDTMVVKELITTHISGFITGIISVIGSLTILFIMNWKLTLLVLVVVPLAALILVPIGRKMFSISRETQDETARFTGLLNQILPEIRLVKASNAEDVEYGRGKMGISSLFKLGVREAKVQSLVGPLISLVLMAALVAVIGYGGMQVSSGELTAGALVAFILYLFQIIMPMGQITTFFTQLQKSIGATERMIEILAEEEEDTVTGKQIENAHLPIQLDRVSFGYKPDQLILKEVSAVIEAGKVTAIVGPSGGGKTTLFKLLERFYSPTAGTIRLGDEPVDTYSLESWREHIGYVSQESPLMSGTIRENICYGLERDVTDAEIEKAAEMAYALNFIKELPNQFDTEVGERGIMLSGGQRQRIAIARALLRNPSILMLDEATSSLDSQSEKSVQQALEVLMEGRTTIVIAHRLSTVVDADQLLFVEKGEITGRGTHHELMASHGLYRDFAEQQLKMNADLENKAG

| Compound | extraction of BmrA (BmrA [1]) | CMC [2] [mM] | extraction of AcrB (AcrB) | Ø, nm [3] [nm] | CMC (breakage in the slope of DPH fluorescence, FIG. 4) ([2]; triplicates) [µM] | selective extraction AcrB versus BmrA (AcrB; comparison of extraction of AcrB and BmrA) | ATPase activity of BmrA (BmrA [4]; relative to protein without compound, at concentrations that solubilize/extract BmrA (LMNG 10 mM; DDM beyond 5 mM), 2 h at 4° C.) [%] | impact on the activity of BmrA (BmrA [4]; up to 1 mM) |
| --- | --- | --- | --- | --- | --- | --- | --- | --- |
| CCCCCCCCCCCCCCCCCCC(=O)N[C@@H](COCc1cn(CCO[C@@H]2OC(CO)[C@@H](O)C(O)C2O)nn1)C(=O)N[C@H](CCC(=O)O)C(=O)O (stereo partly drawn) [Compound 3.7d] | partially extracting | 0.02 | extracting | 5.5 |  |  |  |  |
| CCCCCCCCCCCCCCCCCCC(=O)N[C@@H](COCc1cn(CCO[C@@H]2OC(CO)[C@@H](O[C@H]3OC(CO)[C@@H](O)C(O)C3O)C(O)C2O)nn1)C(=O)N[C@H](CCC(=O)O)C(=O)O (stereo partly drawn) [Compound 3.7f] | extracting | 0.02 | extracting | 4.0 | 20 |  |  |  |
| CCCCCCCCCCCCCCCC(=O)NC(CC(=O)NC(CCC(=O)O)C(=O)O)C(=O)NC(CCC(=O)O)C(=O)O (stereo not drawn) [Compound 4.6d] (Palmitoyl-Asp(Glu)-Glu-OH; configuration not given here) | extracting | 1 | extracting; also recorded: partially extract |  |  | not extract, or only very slightly extract, AcrB, unlike BmrA |  |  |
| CCCCCCCCCCC(CCCCCCCCCC)(CO[C@@H]1O[C@H](CO)[C@@H](O[C@H]2O[C@H](CO)[C@@H](O)[C@H](O)[C@H]2O)[C@H](O)[C@H]1O)CO[C@@H]1O[C@H](CO)[C@@H](O[C@H]2O[C@H](CO)[C@@H](O)[C@H](O)[C@H]2O)[C@H](O)[C@H]1O [LMNG, lauryl maltose neopentyl glycol, reference compound] |  |  |  |  |  |  | 25 | relatively low impact |
